Ends that are not written are not given here.
Legend:
Malassezia furfur [1] = assay: Inhibition of Malassezia furfur growth test (optical density and colony-forming units), Examples 1 and 2; assay type: cell-based; details: for colony-forming units: 10 μl plated out
Experimental: Growth medium: M472-Pitysporum medium according to DSMZ
(§1) The components were sterilized at 121° C., 1 bar superatmospheric pressure for 20 minutes.
2 g/l of olive oil were sterilized by filtration and, after autoclaving, added to the other components.
(§2) Since it was a two-phase medium, the complete medium was treated with sonication in order to enlarge the phase boundary.
For agar plates, if appropriate, […] of agar agar were added to the medium.
The growth test was carried out as follows: A shake flask with M472-Pitysporum medium was inoculated with M. furfur and incubated with shaking overnight at 30° C. and 200 rpm.
(§3) A 96-well microtiter plate was filled with in each case 100 μl of M472-Pitysporum medium and inoculated with M. furfur suspension of the overnight culture. The M. furfur suspension was adjusted at the start of the experiment to an optical density, measured at 620 nm, of 0.02. The concentrates of the inhibitor solutions were 1 mM in water or DMSO.
The growth of the following batches was compared by measuring the optical density:
(§4) M. furfur suspension without the addition of an inhibitor.
This was to exclude that an inhibition is attributable merely to the effect of the DMSO, or a false positive result being observed.
M. furfur suspension and addition of an aqueous P18 solution with a final concentration of 25 μM.
M. furfur suspension and addition of a P18 solution in DMSO with a final concentration of 25 μM.
M. furfur suspension and addition of a zinc pyrithione (ZPT, Sigma-Aldrich) solution in DMSO with a final concentration of 25 μM.
M. furfur suspension and addition of a Ketoconazole (Sigma-Aldrich) solution in DMSO with a final concentration of 25 μM.
(§5) The microtiter plate was incubated with shaking at 30° C.
[…] The colony-forming units (CFU) were then determined by plating out 10 μl from each of the suspensions and, after incubation for 6 days, counting the colonies. The CFU was determined in order to exclude an influence of the two-phase medium and also the growth form of M. furfur on the optical density. […] The experiments were carried out at least in triple determinations and independently repeated.
For this, the procedure was as described in Example 1. 1 mM stock solutions of the fusion peptide P18, magainin 2 and cecropin A in DMSO were prepared. The final concentrations of the peptides in the growth experiments were 25 μM. The same amount of DMSO was likewise added to the suspension without inhibitor in order to exclude a growth-inhibiting effect of the DMSO.
The growth of the following mixtures was compared by measuring the optical density:
This was to exclude that an inhibition is attributable merely to the effect of the DMSO.
M. furfur suspension and addition of a magainin 2 solution in DMSO with a final concentration of 25 μM.
M. furfur suspension and addition of a cecropin A solution in DMSO with a final concentration of 25 μM.
M. furfur suspension and addition of a peptide P18 (SEQ ID NO3) solution in DMSO with a final concentration of 25 μM.

Malassezia furfur [2] = assay: Long-term stability of P18 (12 weeks at 37° C.) tested on Malassezia furfur, CFU; assay type: cell-based; details: for colony-forming units: mean ± SD
Experimental: Since storage over longer time periods may be necessary, in the following a 1 mM P18 peptide solution (P18 sequence H-KWKLFKKIPKFLHLAKKF-NH2; SEQ ID NO: 3) was stored for 12 weeks at 37° C. and the antifungal activity of the stored solution on Malassezia furfur was compared to the activity of a freshly prepared 1 mM P18 peptide solution. This was done through a growth test, which was carried out as follows:
Growth medium: M472-Pityrosporum medium according to DSMZ
as §1
2 g/L of olive oil (sterilized by filtration and, after autoclaving, added to the other components)
as §2
For agar plates, if appropriate, 150 g/L of agar agar were added to the medium.
The growth test was carried out as follows: A shake flask with M472-Pityrosporum medium was inoculated with M. furfur and incubated with shaking overnight at 30° C. and 200 rpm.
as §3, with “M472-Pityrosporum” for “M472-Pitysporum”, “600” for “620”, “water.” for “water or DMSO.”
The growth of the following batches was compared:
as §4
M. furfur suspension and addition of a fresh aqueous P18 solution with a final concentration of 50 μM.
M. furfur suspension and addition of a fresh aqueous P18 solution with a final concentration of 25 μM.
M. furfur suspension and addition of a P18 solution that had been stored at 37° C. for 12 weeks, with a final concentration of 50 μM.
M. furfur suspension and addition of a P18 solution that had been stored at 37° C. for 12 weeks, with a final concentration of 25 μM.
as §5
The growth was observed over 24 hours by measuring the optical density. The colony-forming units (CFU) were then determined by plating out 1 μl and 5 μl from each of the suspensions and, after incubation for 6 days, counting the colonies. The CFU was determined in order to exclude an influence of the two-phase medium and also the growth form of M. furfur on the optical density. The experiments were carried out at least in triple determinations.

[3] = aqueous solution, 25 μM, incubation time 16 h
[4] = aqueous solution, 25 μM, incubation time 24 h
[5] = aqueous solution, 25 μM, incubation time 40 h
[6] = solution in DMSO, 25 μM, incubation time 16 h
[7] = solution in DMSO, 25 μM, incubation time 24 h
[8] = solution in DMSO, 25 μM, incubation time 40 h

“KWKLFKKIPKFLHLAKKF-NH2 [P18, KWKLFKKIPKFLHLAKKF-NH2]” was tested, and the “inhibition of the growth of M. furfur compared to magainin 2 or cecropin A” value (Malassezia furfur [1]; 25 μM in DMSO) was “more effectively than magainin 2 or cecropin A alone”, the “growth of M. furfur (in words)” value (Malassezia furfur [1]; 25 μM, observed time period up to 40 hours) was “effectively inhibited” and the optical density (Malassezia furfur [1]; aqueous solution, 25 μM, incubation time 0 h) was 0. The optical density (Malassezia furfur [1]; [3]) was 0, the colony-forming units (Malassezia furfur [1]; [3]) was 62 and the optical density (Malassezia furfur [1]; [4]) was 0. For the same substance, the colony-forming units (Malassezia furfur [1]; [4]) was 41, the optical density (Malassezia furfur [1]; [5]) was 0 and the colony-forming units (Malassezia furfur [1]; [5]) was 120. The optical density (Malassezia furfur [1]; solution in DMSO, 25 μM, incubation time 0 h) was 0, the optical density (Malassezia furfur [1]; [6]) was 0 and the colony-forming units (Malassezia furfur [1]; [6]) was 8. For the same substance, the optical density (Malassezia furfur [1]; [7]) was 0, the colony-forming units (Malassezia furfur [1]; [7]) was 0 and the optical density (Malassezia furfur [1]; [8]) was 0. The colony-forming units (Malassezia furfur [1]; [8]) was 0, the CFU (Malassezia furfur [1]; solution in DMSO, 25 μM, incubation time 64 h) was 0 and the CFU (Malassezia furfur [1]; solution in DMSO, 25 μM, incubation time 72 h) was 23. The “influence of storage on the activity of the P18 peptide solution” value (Malassezia furfur [2]; 1 mM solution stored for 12 weeks at 37° C.) was “has not influenced the activity”, the colony-forming units (Malassezia furfur [2]; aqueous P18 solution stored 12 weeks at 37° C., 25 μM final conc., incubation time 16-18 h) was 6 ± 7 and the colony-forming units (Malassezia furfur [2]; aqueous P18 solution stored 12 weeks at 37° C., 25 μM final conc., incubation time 24 h) was 5 ± 5. For the same substance, the colony-forming units (Malassezia furfur [2]; aqueous P18 solution stored 12 weeks at 37° C., 50 μM final conc., incubation time 16-18 h) was 0 ± 0, the colony-forming units (Malassezia furfur [2]; aqueous P18 solution stored 12 weeks at 37° C., 50 μM final conc., incubation time 24 h) was 1 ± 1 and the colony-forming units (Malassezia furfur [2]; fresh aqueous P18 solution, 25 μM final conc., incubation time 16-18 h) was 5 ± 8. For the same substance, the colony-forming units (Malassezia furfur [2]; fresh aqueous P18 solution, 25 μM final conc., incubation time 24 h) was 1 ± 2, the colony-forming units (Malassezia furfur [2]; fresh aqueous P18 solution, 50 μM final conc., incubation time 16-18 h) was 0 ± 0 and the colony-forming units (Malassezia furfur [2]; fresh aqueous P18 solution, 50 μM final conc., incubation time 24 h) was 1 ± 1.
